Data from PubChem BioAssay AID248 (DTP/NCI, 2004).
Several values for one entry are separate records, joined by “and”; a condition that tells them apart may be missing. Equal entries are not always repeated. Inconclusive results and toxic doses are left out. Rule as the data show it: active = T/C of 150% or more; inactive = T/C below 125%.

Test system: L1210 leukemia ip in BDF1 mice, survival T/C
Assay: NCI In Vivo Anticancer Drug Screen. Data for tumor model L1210 Leukemia (intraperitoneal) in B6D2F1 (BDF1) mice
Conditions: endpoint: mean survival time, higher = longer survival
Summary of the method: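 In this screen, tumor-bearing mice given compound are compared to those given vehicle, and their survival values are reported as a treated-to-control quotient.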

[1] = dose: 100.0 mg/kg/injection, schedule: Q01DX001 (ip), vehicle: saline with Tween-80
[2] = dose: 100.0 mg/kg/injection, schedule: Q04DX003 (ip), vehicle: saline with Tween-80
[3] = dose: 200.0 mg/kg/injection, schedule: Q01DX001 (ip), vehicle: saline with Tween-80
[4] = dose: 200.0 mg/kg/injection, schedule: Q04DX003 (ip), vehicle: saline with Tween-80
[5] = dose: 400.0 mg/kg/injection, schedule: Q04DX003 (ip), vehicle: saline with Tween-80
[6] = dose: 100.0 mg/kg/injection, schedule: Q01DX001 (ip), vehicle: carboxymethylcellulose (CMC)
[7] = dose: 100.0 mg/kg/injection, schedule: Q01DX009 (ip), vehicle: Klucel (hydroxypropylcellulose) (HPC)
[8] = dose: 100.0 mg/kg/injection, schedule: Q04DX003 (ip), vehicle: Klucel (hydroxypropylcellulose) (HPC)
[9] = dose: 200.0 mg/kg/injection, schedule: Q01DX009 (ip), vehicle: Klucel (hydroxypropylcellulose) (HPC)
[10] = dose: 200.0 mg/kg/injection, schedule: Q04DX003 (ip), vehicle: Klucel (hydroxypropylcellulose) (HPC)
[11] = dose: 400.0 mg/kg/injection, schedule: Q01DX009 (ip), vehicle: Klucel (hydroxypropylcellulose) (HPC)
[12] = dose: 400.0 mg/kg/injection, schedule: Q04DX003 (ip), vehicle: Klucel (hydroxypropylcellulose) (HPC)

Measured: T/C

CC(=O)OC1COC(NC(=O)N(CCCl)N=O)C(OC(C)=O)C1OC(C)=O (stereo not drawn)
active: dose: 9.0 mg/kg/injection, schedule: Q01DX001 (ip), vehicle: saline with Tween-80 211 % of control | dose: 13.0 mg/kg/injection, schedule: Q01DX001 (ip), vehicle: saline with Tween-80 284 % of control | dose: 20.0 mg/kg/injection, schedule: Q01DX001 (ip), vehicle: saline with Tween-80 459 % of control | dose: 30.0 mg/kg/injection, schedule: Q01DX001 (ip), vehicle: saline with Tween-80 294 % of control

CCN(C=O)c1ccc(NC=O)cc1
inactive: dose: 50.0 mg/kg/injection, schedule: Q01DX001 (ip), vehicle: saline with Tween-80 104 % of control | [1] 94 % of control and 100 % of control | dose: 100.0 mg/kg/injection, schedule: Q04DX002 (ip), vehicle: saline with Tween-80 103 % of control | [2] 97 % of control | [3] 94 % of control and 91 % of control | dose: 200.0 mg/kg/injection, schedule: Q04DX002 (ip), vehicle: saline with Tween-80 97 % of control | [4] 95 % of control and 91 % of control | dose: 400.0 mg/kg/injection, schedule: Q01DX001 (ip), vehicle: saline with Tween-80 94 % of control | dose: 400.0 mg/kg/injection, schedule: Q04DX002 (ip), vehicle: saline with Tween-80 101 % of control | [5] 103 % of control and 108 % of control

CC(=O)OC1(c2ccccc2)OC(=O)C(C)(C)c2ccccc21 (stereo not drawn)
inactive: [1] 94 % of control | [3] 91 % of control

CCC[CH2][Sn]1([CH2]CCC)[O]OC(c2ccc(C)cc2)[O]1 (stereo not drawn)
inactive: dose: 12.5 mg/kg/injection, schedule: Q01DX009 (ip), vehicle: Klucel (hydroxypropylcellulose) (HPC) 101 % of control | dose: 12.5 mg/kg/injection, schedule: Q04DX002 (ip), vehicle: Klucel (hydroxypropylcellulose) (HPC) 94 % of control | dose: 25.0 mg/kg/injection, schedule: Q01DX009 (ip), vehicle: Klucel (hydroxypropylcellulose) (HPC) 119 % of control | dose: 25.0 mg/kg/injection, schedule: Q04DX002 (ip), vehicle: Klucel (hydroxypropylcellulose) (HPC) 86 % of control

O=C(O)CCC(=O)NCCN(CCNC(=O)CCC(=O)O)C(=O)CCC(=O)O
inactive: dose: 100.0 mg/kg/injection, schedule: Q01DX001 (ip), vehicle: other 105 % of control | dose: 100.0 mg/kg/injection, schedule: Q01DX009 (ip), vehicle: water 100 % of control | dose: 100.0 mg/kg/injection, schedule: Q04DX003 (ip), vehicle: water 105 % of control | dose: 200.0 mg/kg/injection, schedule: Q01DX001 (ip), vehicle: other 100 % of control | dose: 200.0 mg/kg/injection, schedule: Q01DX009 (ip), vehicle: water 97 % of control | dose: 200.0 mg/kg/injection, schedule: Q04DX003 (ip), vehicle: water 98 % of control | dose: 400.0 mg/kg/injection, schedule: Q01DX001 (ip), vehicle: other 98 % of control | dose: 400.0 mg/kg/injection, schedule: Q01DX009 (ip), vehicle: water 97 % of control | dose: 400.0 mg/kg/injection, schedule: Q04DX003 (ip), vehicle: water 102 % of control

COc1ccccc1-n1c(O)c(N=Nc2ccccc2)c(=O)n(-c2ccc(Br)cc2)c1=S
inactive: [2] 106 % of control | [4] 100 % of control | [5] 94 % of control

O=c1[nH]cnc2nccnc12
inactive: dose: 25.0 mg/kg/injection, schedule: Q04DX003 (ip), vehicle: saline 100 % of control | dose: 50.0 mg/kg/injection, schedule: Q04DX003 (ip), vehicle: saline 101 % of control | dose: 100.0 mg/kg/injection, schedule: Q04DX003 (ip), vehicle: saline 88 % of control | dose: 200.0 mg/kg/injection, schedule: Q04DX003 (ip), vehicle: saline 90 % of control

c1ccc2c(CCCCc3nccc4ccccc34)nccc2c1
inactive: dose: 100.0 mg/kg/injection, schedule: Q04DX002 (ip), vehicle: Klucel (hydroxypropylcellulose) (HPC) 102 % of control | dose: 200.0 mg/kg/injection, schedule: Q04DX002 (ip), vehicle: Klucel (hydroxypropylcellulose) (HPC) 97 % of control | dose: 400.0 mg/kg/injection, schedule: Q04DX002 (ip), vehicle: Klucel (hydroxypropylcellulose) (HPC) 89 % of control

Cc1c(C)c(NC(=O)/C=C/C(=O)O)c(C)c(C)c1NC(=O)/C=C\C(=O)O
inactive: dose: 100.0 mg/kg/injection, schedule: Q01DX009 (ip), vehicle: saline with Tween-80 104 % of control | dose: 200.0 mg/kg/injection, schedule: Q01DX009 (ip), vehicle: saline with Tween-80 96 % of control | dose: 400.0 mg/kg/injection, schedule: Q01DX009 (ip), vehicle: saline with Tween-80 102 % of control

O=C1OC(c2ccccc2)(c2cccc3ccccc23)CC1c1ccccc1 (stereo not drawn)
inactive: dose: 100.0 mg/kg/injection, schedule: Q01DX001 (ip), vehicle: saline 98 % of control | dose: 200.0 mg/kg/injection, schedule: Q01DX001 (ip), vehicle: saline 98 % of control | dose: 400.0 mg/kg/injection, schedule: Q01DX001 (ip), vehicle: saline 89 % of control

CN(C)N1CCC2(CCC(C(C)(C)C)CC2)CC1
inactive: dose: 50.0 mg/kg/injection, schedule: Q01DX001 (ip), vehicle: carboxymethylcellulose (CMC) 101 % of control | [6] 95 % of control

CCCc1ccc2c(c1)CCCC2
inactive: [7] 94 % of control | [8] 94 % of control | [9] 90 % of control | [10] 93 % of control | [11] 97 % of control | [12] 94 % of control

CC(CCl)NC(=O)Nc1cccc2c1CCCC2 (stereo not drawn)
inactive: [7] 102 % of control | [8] 106 % of control | [9] 103 % of control | [10] 106 % of control | [11] 97 % of control | [12] 103 % of control

O=C1C[C@@H](c2ccc(O)cc2)[C@@]2(O1)C(=O)O[C@H]([C@@H](O)CO)[C@@H]2O
inactive: dose: 75.0 mg/kg/injection, schedule: Q01DX001 (ip), vehicle: saline 98 % of control | dose: 75.0 mg/kg/injection, schedule: Q01DX009 (ip), vehicle: saline 96 % of control | dose: 75.0 mg/kg/injection, schedule: Q04DX003 (ip), vehicle: saline 95 % of control | dose: 150.0 mg/kg/injection, schedule: Q01DX001 (ip), vehicle: saline 96 % of control | dose: 150.0 mg/kg/injection, schedule: Q01DX009 (ip), vehicle: saline 93 % of control | dose: 150.0 mg/kg/injection, schedule: Q04DX003 (ip), vehicle: saline 98 % of control | dose: 300.0 mg/kg/injection, schedule: Q01DX001 (ip), vehicle: saline 97 % of control | dose: 300.0 mg/kg/injection, schedule: Q01DX009 (ip), vehicle: saline 100 % of control | dose: 300.0 mg/kg/injection, schedule: Q04DX003 (ip), vehicle: saline 94 % of control

C=CCOC(=O)Nc1ccc(S(=O)(=O)CC)cc1
inactive: [6] 94 % of control | dose: 200.0 mg/kg/injection, schedule: Q01DX001 (ip), vehicle: carboxymethylcellulose (CMC) 102 % of control | dose: 400.0 mg/kg/injection, schedule: Q01DX001 (ip), vehicle: carboxymethylcellulose (CMC) 91 % of control

N/N=C(\N)c1nn(C2OC(CO)C(O)C2O)c2ncnc(N)c12 (stereo not drawn)
inactive: dose: 60.0 mg/kg/injection, schedule: Q01DX005 (ip), vehicle: saline 116 % of control | dose: 100.0 mg/kg/injection, schedule: Q01DX005 (ip), vehicle: saline 124 % of control | dose: 200.0 mg/kg/injection, schedule: Q01DX005 (ip), vehicle: saline 113 % of control

CCOc1ccc(NC(=O)C(Br)C(Br)C(=O)O)cc1 (stereo not drawn)
inactive: [7] 94 % of control | [9] 98 % of control | [11] 100 % of control

N#CC(CC(=O)c1ccc2c(c1)OCO2)c1ccc2c(c1)OCO2 (stereo not drawn)
inactive: [7] 101 % of control | [8] 95 % of control | [9] 101 % of control | [10] 98 % of control | [11] 97 % of control | [12] 101 % of control
